According to ChEMBL document CHEMBL1138911 (Bioorg Med Chem Lett, 2006):

Tests used:
[1] = tested on: Mus musculus; assay: Analgesic activity in iv dosed DBA mouse by tail clip assay; format: functional
[2] = species on record: Mus musculus; assay: animal or person; settings: DBA, Tail, iv
Description: Analgesic activity in iv dosed DBA mouse by tail flick assay

[3] = species on record: Mus musculus; assay: animal or person; settings: DBA, iv
Description: Analgesic activity in iv dosed DBA mouse by hot plate assay

[4] = species on record: Mus musculus; assay: animal or person; settings: DBA, iv; remark: listed apart in the source
Description: Analgesic activity in iv dosed DBA mouse by writhing assay

[5] = species on record: Mus musculus; assay: animal or person; settings: SHR, iv
Description: Analgesic activity in iv dosed SHR mouse by tail clip assay

[6] = species on record: Mus musculus; assay: animal or person; settings: SHR, Tail, iv
Description: Analgesic activity in iv dosed SHR mouse by tail flick assay

[7] = species on record: Mus musculus; assay: animal or person; settings: SHR, iv; remark: listed apart in the source
Description: Analgesic activity in iv dosed SHR mouse by hot plate assay

[8] = species on record: Mus musculus; assay: animal or person; settings: SHR, iv; remark: listed apart in the source
Description: Analgesic activity in iv dosed SHR mouse by writhing assay

## CO[C@@]12CC[C@@]3(C[C@@H]1[C@](C)(O)C(C)(C)C)[C@H]1Cc4ccc(O)c5c4[C@@]3(CCN1CC1CC1)[C@H]2O5 [BUPRENORPHINE]
[1]
  Efficacy: 46.7%
[2]
  ED50: 0.312 mg/kg
[3]
  ED50: 0.195 mg/kg
[4]
  ED50: 0.0295 mg/kg
[5]
  ED50: 0.0466 mg/kg
[6]
  ED50: 0.0404 mg/kg
[7]
  ED50: 0.0233 mg/kg
[8]
  ED50: 0.0223 mg/kg
